Source: patent US12582616B2, “Molecular targets for modulation of dissociative and associative states” (The Board of Trustees of the Leland Stanford Junior …, priority 2020, dated 2026)
Entries after “also recorded” stand apart in the source; their conditions may differ.

What was measured:
[1] = test system: retrosplenial cortex (RSP); experiment: Two-photon imaging of retrosplenial cortex; format: in vivo, mouse
Procedure: Mice were anesthetized with isoflurane and the skull above retrosplenial cortex was removed and replaced with a 7 mm circular glass coverslip. For layer 1 experiments, Thy1GcaMP6s mice were used. For layer 2/3 experiments, Cux2-CreER; Ai148 mice were used (tamoxifen dissolved in corn oil was injected intraperitoneally at 0.1 mg/g at least 2 weeks prior to imaging). For layer 5 experiments, Rbp4-Cre mice were injected locally in retrosplenial with 800 nL AAVdj-Ef1a-DIO-GCaMP6f (titer 5E12) at stereotactic coordinates (−3AP, 0.5ML, −0.6DV). Mice were given >=1 week to recover before imaging. Awake, head-fixed imaging was performed on a standard two photon microscope (NeuroLabWare, Los Angeles, CA). A 16x 0.8 NA Nikon objective was immersed in clear ultrasound gel for imaging (Aquasonic, Parker Laboratories); frame rate of 30 Hz. Although we observed oscillations in RSP with 50 mg/kg, we were concerned that 50 mg/kg may be too low a dose to sensitively detect a potentially weaker signal in visual cortex or layer 2/3, and so we used 80 mg/kg in these experiments.
Two-photon tiff stack videos were registered to the average image using the TurboReg ImageJ plug-in using rigid body transformations. […] Contaminating neuropil signal was estimated from an annulus surrounding each soma mask and removed using the function F(t)=Fsoma(t)-0.3*Fneuropil(t), where Fsoma(t) is the somatic DF/F and Fneuropil(t) is the DF/F from an annulus 4 pixels wide surrounding each soma mask. The resulting traces were detrended and z-scored. The full frame fluorescence (used for quantifying layer 1 neuropil oscillations) was computed by summing all of the pixels in each frame on each time point, and then computing DF/F the same way, with no neuropil subtraction step.
Each trace (corresponding to either a fiber photometry signal, a cellular two-photon signal, a widefield regional centroid, a widefield pixel, an sEEG trace, or a smoothed spike rate Neuropixels trace) was z-scored, and the power spectral density (PSD) was then estimated using Welch's method (pwelch( ) in Matlab), with a window size of 10*fs (15*fs for human sEEG) where fs is the sampling rate of the signal. The average band power within a specified band (i.e. 1-3 Hz) was then computed by integrating the PSD estimate (bandpower in Matlab). For displaying the traces of individual cells, traces were each zscored by subtracting the mean value of the trace (across the whole recorded time window) and dividing by the standard deviation of the trace. Unless otherwise indicated, the PSD was computed across the time window from minutes 10 to 11 post-injection.

[2] = test system: mice; experiment: Righting reflex assay; format: in vivo, mouse
Text: Righting Reflex Assay: Mice were held at the neck and tail, rotated to supine position on a flat surface, and quickly released. Time to right was quantified as moment of release to moment when all 4 legs touched the ground. A five second threshold was used to classify righting success (less than 5 seconds) from failure (more than 5 seconds). […] Illumination began for 30 seconds, and then the mouse was swiftly inverted onto the flat surface.

[3] = test system: mice; experiment: Observation for seizure-like behavior after dissociative doses; format: in vivo, mouse; conditions: dissociative doses of ketamine
Text: One characteristic of seizures is increased synchrony. While the ketamine-induced rhythm involved increased synchrony in neuronal firing, the initiation, spread, maintenance/termination, and behavior were distinguishable from typical seizures.

[4] = test system: mice; experiment: Resident-intruder social interaction assay; format: in vivo, mouse; conditions: ketamine, both channel-knockouts vs wild-type
Procedure: Social Interaction Assay: Resident-intruder social interaction was recorded for two minutes. Interactions were defined as close physical proximity behaviors, including sniffing, touching, and following. […] Illumination began 30 seconds before the same-sex intruder mouse was introduced.

[5] = test system: mouse; conditions: cited from earlier work
[6] = test system: mice; experiment: Tail suspension test; format: in vivo, mouse
Procedure: Tail Suspension Test: Mouse activity was recorded using a 60 Hz web camera. Struggling activity was quantified for minutes 2-10. […] Illumination began 30 seconds before tails were secured with tape and suspended from the beam. Mice were excluded if they climbed on their own tails.

[7] = test system: brain regions correlated with RSP; experiment: Simultaneous recording from four Neuropixels probes with i.p. drug delivery
Procedure: Mice were anesthetized with isoflurane, carefully leveled in a stereotaxic apparatus and their scalp and periosteum were removed. A 3% hydrogen peroxide in saline solution was used to clean the surface of the skull. A custom stainless steel headbar was leveled on the skull and attached using clear dental cement. After the cement had dried, targeted probe entry sites were stereotaxically marked on the cement layer with a permanent marker (Day 1: “mPFC”, 2.3AP, 0.6ML; “somatosensory”, −0.7AP, −4.0ML; “retrosplenial”, −2AP, −1 ML; “subiculum”, −3.5AP, 2.14ML; Day 2: “OFC”: 2.5AP, 1.5ML; “mPFC”: 2.3AP, −0.6ML; “retrosplenial”, −2AP, 1ML; “thalamus”, −1.5AP, −1.7ML). In part, they were selected to cover areas with known connectivity to the retrosplenial cortex. A 2 mm long insulated platinum-iridium wire was implanted centrally over the cerebellum, with the last several hundred microns bared to serve as an electrical reference.
Mice were acclimated to head fixation and the recording rig over several days before recording. Several hours before recording, mice were anesthetized for approximately 30 minutes each while small 1 mm craniotomies were made over four pre-marked areas. Craniotomies were kept clean of bone fragments and made such that bleeding was minimized. The skull was covered with a pool of saline and with Quik-Cast to protect and keep moist craniotomies before recording. Mice recovered in their homecages before recording. Immediately prior to recording set up, mice were very briefly anesthetized with isoflurane and implanted with an IV catheter system (BD Saf-T-Intima Closed IV Catheter System: 22G×3/4′, containing an integrated Y adaptor and safety lock) to their intraperitoneal cavity and affixed with glue. […] While still anesthetized, mice were headfixed and tubing was secured stably to a custom mouse holder by tape. Quik-Cast was removed from the skull, and craniotomies were briefly cleaned before being submerged in a pool of saline. […] The four acquisitions were synchronized using a common squarewave signal recorded for all probes and aligned to the nearest pulse edge. […]

[8] = test system: mice; experiment: Hot plate test
Procedure: Hot Plate Test: Mice were placed on the hot plate (Bioseb), which was set to 55° C. and surrounded by a clear circular perimeter. Mouse activity was recorded using two cameras from different angles. The experiment ended when the mouse jumped to escape or 90 seconds had elapsed. Care was taken to clean and dry the hot plate apparatus between animals. For optogenetic experiments, mice were connected to patch cords and then returned to a holding cage. Illumination began 30 seconds before mice were placed on the hot plate.

[9] = 50 mg/kg ketamine, control mice of knockout experiment

CNC1(c2ccccc2Cl)CCCCC1=O (stereo not shown) [ketamine]
oscillation and population synchrony in layer 2/3 RSP neurons ([1]; Cux2-CreER mice, after ketamine): neither oscillating neurons nor population synchrony were observed
synchronous activity in layer 5 RSP neurons ([1]; Rbp4-Cre mice, after ketamine): exhibited synchronous activity
spread of ketamine-rhythm across layers and regions ([1]; Supplementary Note 2): did not spread beyond layer 5 neurons in retrosplenial cortex
oscillation in superficial neuropil, RSP vs neighboring visual cortex ([1]; two-photon, cranial window, 80 mg/kg): observed the oscillation in RSP but not neighboring visual cortex
consciousness (spontaneous ambulation, response to external stimuli) ([2]; ketamine >=25 mg/kg, subanesthetic): consciousness was maintained
righting of postural inversion ([2]; ketamine, knockout and wild-type mice): all mice successfully-righted postural inversion
seizure-like signs (rigidity, convulsive movements, absence-like states, salivation/rearing/falling) [3]: no rigidity, convulsive movements, absence-like states, or salivation/rearing/falling were observed
resident-intruder social interactions [4]: modestly-recovered
typical dose for anti-depressant effects [5]: 3 to 10 mg/kg
tail-suspension escape responses ([6]; ketamine >=25 mg/kg): similarly suppressed tail-suspension escape responses
tail suspension-escape behavior ([6]; ketamine, both channel-knockouts vs wild-type): modestly-recovered tail suspension-escape behavior
correlations of brain regions with RSP ([7]; 8-12 min after 50 mg/kg ketamine i.p.): correlations with RSP were reduced
correlation of laterodorsal and anteroventral thalamus with each other and RSP ([7]; subanesthetic ketamine): became more-strongly correlated to each other and RSP
rhythmicity of specific subcortical regions ([7]; subanesthetic ketamine): exhibiting increased rhythmicity
affective paw-licking, hot plate ([8]; 50 mg/kg ketamine, RSP Cre-virus in HCN1-KO mice): strikingly restored affective paw-licking
affective paw-licking, hot plate [8, 9]: abolished affective paw-licking
reflexive paw-flicks, hot plate [8, 9]: preserving reflexive paw-flicks
affective/emotional defensive behavior (paw-lick), hot plate ([8]; ketamine 25 and 50 mg/kg): abolished affective/emotional
motivational defensive behavior (jump-to-escape), hot plate ([8]; ketamine 25 and 50 mg/kg): abolished
reflexive responses (paw-flick), hot plate ([8]; ketamine dose series up to 50 mg/kg): did not reduce reflexive responses
affective behavior ([8]; ketamine, GRIN1 knockouts): without recovery of affective behavior
dissociation-like behavioral effects ([8]; ketamine, HCN1 channels removed from retrosplenial cortex): selectively abolished both the ketamine-induced rhythm and dissociation-like behavioral effects; also recorded: did not fully elicit the dissociation-like behavioral effects
